Measured values from ChEMBL document CHEMBL2040736, “Design of potent and selective hybrid inhibitors of the mitotic kinase Nek2: structure-activity relationship, structural biology, and cellular activity” (J Med Chem, 2012).

Legend:
[1] = target: Tyrosine-protein kinase Fyn (Homo sapiens, UniProt P06241); experiment: Inhibition of FYN at 1 uM incubated for 30 mins prior to substrate addition study done at apparent ATP Km for enzyme
MDA-MB-231 = experiment: Growth inhibition of human MDA-MB-231 cells after 92 hrs by CellTiter-Blue assay; assay type: functional; conditions: MDA-MB-231, 92 h
[2] = target: Tyrosine-protein kinase ABL1 (Homo sapiens, UniProt P00519); experiment: Inhibition of ABL at 1 uM
[3] = target: Serine/threonine-protein kinase PLK1 (Homo sapiens, UniProt P53350); experiment: Inhibition of Plk1 using 5-FAMRRRAGALMDASFEEQ- CONH2 as substrate after 75 mins by caliper method
MCF7 = experiment: Growth inhibition of human MCF7 cells after 92 hrs by CellTiter-Blue assay; assay type: functional; conditions: MCF7, 92 h
[4] = target: Serine/threonine-protein kinase Chk2 (Homo sapiens, UniProt O96017); experiment: Inhibition of CHK2 incubated for 30 mins prior to substrate addition study done at apparent ATP Km for enzyme
[5] = target: T1, Dual specificity protein kinase TTK (Homo sapiens, UniProt P33981); experiment: Inhibition of MPS1 by caliper method
T1 sequence (P33981 whole entry): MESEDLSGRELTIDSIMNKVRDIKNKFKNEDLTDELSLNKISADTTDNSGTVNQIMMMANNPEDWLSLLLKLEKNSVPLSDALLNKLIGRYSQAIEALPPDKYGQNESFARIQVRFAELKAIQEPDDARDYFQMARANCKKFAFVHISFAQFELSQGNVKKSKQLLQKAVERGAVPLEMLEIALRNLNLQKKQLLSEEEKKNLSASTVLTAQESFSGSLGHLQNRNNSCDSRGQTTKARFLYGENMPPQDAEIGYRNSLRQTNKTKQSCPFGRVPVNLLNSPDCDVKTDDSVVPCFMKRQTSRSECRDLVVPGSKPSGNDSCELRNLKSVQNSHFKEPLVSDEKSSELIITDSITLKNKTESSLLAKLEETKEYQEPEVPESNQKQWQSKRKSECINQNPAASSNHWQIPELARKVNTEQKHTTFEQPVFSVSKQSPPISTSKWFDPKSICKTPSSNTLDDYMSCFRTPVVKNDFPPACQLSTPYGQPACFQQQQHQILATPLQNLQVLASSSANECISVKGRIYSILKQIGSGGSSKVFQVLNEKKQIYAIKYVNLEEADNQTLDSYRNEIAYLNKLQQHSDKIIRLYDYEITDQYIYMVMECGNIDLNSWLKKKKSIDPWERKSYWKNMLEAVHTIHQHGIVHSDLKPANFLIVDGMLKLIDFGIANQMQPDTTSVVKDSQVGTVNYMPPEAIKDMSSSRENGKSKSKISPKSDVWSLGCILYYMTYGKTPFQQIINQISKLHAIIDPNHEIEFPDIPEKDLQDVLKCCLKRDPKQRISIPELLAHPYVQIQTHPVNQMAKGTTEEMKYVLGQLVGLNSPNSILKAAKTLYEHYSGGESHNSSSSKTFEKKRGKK

[6] = Inhibition of PKA at 1 uM incubated for 30 mins prior to substrate addition study done at apparent ATP Km for enzyme
Aurora kinase A = target: T2, Aurora kinase A (Homo sapiens, UniProt O14965); experiment: Inhibition of Aurora A kinase by caliper method
T2 sequence (O14965 whole entry): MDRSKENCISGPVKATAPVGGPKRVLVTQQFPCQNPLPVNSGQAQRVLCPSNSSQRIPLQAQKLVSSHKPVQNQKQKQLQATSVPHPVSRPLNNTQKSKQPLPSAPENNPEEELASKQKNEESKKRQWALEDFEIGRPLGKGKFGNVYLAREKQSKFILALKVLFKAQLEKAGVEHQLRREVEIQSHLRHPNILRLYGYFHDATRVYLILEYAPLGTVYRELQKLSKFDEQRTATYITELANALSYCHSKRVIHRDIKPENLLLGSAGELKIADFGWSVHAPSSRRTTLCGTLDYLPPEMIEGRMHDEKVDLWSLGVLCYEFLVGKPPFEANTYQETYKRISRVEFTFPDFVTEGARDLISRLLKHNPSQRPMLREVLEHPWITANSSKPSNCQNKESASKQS

[7] = target: Aurora kinase A (Homo sapiens) (UniProt O14965); conditions: 1 uM
[8] = target: Insulin receptor (Homo sapiens) (UniProt P06213); experiment: Inhibition of INSR at 1 uM incubated for 30 mins prior to substrate addition study done at apparent ATP Km for enzyme
HeLa = experiment: Growth inhibition of human HeLa cells after 92 hrs by CellTiter-Blue assay; assay type: functional
[9] = target: Tyrosine-protein kinase Lck (Homo sapiens, UniProt P06239); experiment: Inhibition of LCK at 1 uM incubated for 30 mins prior to substrate addition study done at apparent ATP Km for enzyme
[10] = target: T3, Serine/threonine-protein kinase Nek2 (Homo sapiens, UniProt P51955)
T3 sequence (P51955 whole entry): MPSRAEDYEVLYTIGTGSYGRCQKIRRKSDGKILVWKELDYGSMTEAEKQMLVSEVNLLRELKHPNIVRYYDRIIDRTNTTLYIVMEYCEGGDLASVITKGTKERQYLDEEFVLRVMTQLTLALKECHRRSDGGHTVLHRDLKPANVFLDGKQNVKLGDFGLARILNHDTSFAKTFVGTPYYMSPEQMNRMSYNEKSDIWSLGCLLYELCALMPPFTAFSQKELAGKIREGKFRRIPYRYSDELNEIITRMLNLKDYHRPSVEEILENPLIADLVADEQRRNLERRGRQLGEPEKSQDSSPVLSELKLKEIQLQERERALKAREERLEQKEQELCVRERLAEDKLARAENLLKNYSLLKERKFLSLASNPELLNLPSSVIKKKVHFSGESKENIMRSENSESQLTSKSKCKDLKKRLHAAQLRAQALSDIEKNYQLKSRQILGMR

U2OS = experiment: Growth inhibition of human U2OS cells after 92 hrs by CellTiter-Blue assay; assay type: functional
[11] = target: Hepatocyte growth factor receptor (Homo sapiens, UniProt P08581); conditions: 1 uM
[12] = target: Serine/threonine-protein kinase D2 (Homo sapiens, UniProt Q9BZL6); experiment: Inhibition of PKD2 incubated for 30 mins prior to substrate addition study done at apparent ATP Km for enzyme
[13] = target: Serine/threonine-protein kinase D2 (Homo sapiens) (UniProt Q9BZL6); experiment: Inhibition of PKD2 at 1 uM incubated for 30 mins prior to substrate addition study done at apparent ATP Km for enzyme
[14] = target: Tyrosine-protein kinase Lyn (Homo sapiens, UniProt P07948); experiment: Inhibition of LYN incubated for 30 mins prior to substrate addition study done at apparent ATP Km for enzyme
[15] = target: Cyclin-dependent kinase 2 (Homo sapiens, UniProt P24941); experiment: Inhibition of CDK2 by caliper method

Chain of Tyrosine-protein kinase Lck (P06239 2-509 limits assumed): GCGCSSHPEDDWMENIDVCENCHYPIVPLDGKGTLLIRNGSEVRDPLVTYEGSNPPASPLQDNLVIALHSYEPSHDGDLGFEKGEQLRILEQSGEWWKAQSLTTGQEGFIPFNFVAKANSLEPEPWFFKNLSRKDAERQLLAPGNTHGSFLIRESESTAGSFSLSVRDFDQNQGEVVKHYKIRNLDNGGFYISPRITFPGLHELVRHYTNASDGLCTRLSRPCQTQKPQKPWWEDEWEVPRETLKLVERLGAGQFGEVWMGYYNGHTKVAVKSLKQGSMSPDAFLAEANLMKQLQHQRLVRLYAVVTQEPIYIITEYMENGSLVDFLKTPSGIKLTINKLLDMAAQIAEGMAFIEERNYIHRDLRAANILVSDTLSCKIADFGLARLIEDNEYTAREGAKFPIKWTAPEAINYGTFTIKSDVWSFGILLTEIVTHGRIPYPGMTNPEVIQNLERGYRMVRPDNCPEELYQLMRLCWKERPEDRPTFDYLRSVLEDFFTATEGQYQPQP
Chain of Tyrosine-protein kinase Fyn (P06241 2-537 limits assumed): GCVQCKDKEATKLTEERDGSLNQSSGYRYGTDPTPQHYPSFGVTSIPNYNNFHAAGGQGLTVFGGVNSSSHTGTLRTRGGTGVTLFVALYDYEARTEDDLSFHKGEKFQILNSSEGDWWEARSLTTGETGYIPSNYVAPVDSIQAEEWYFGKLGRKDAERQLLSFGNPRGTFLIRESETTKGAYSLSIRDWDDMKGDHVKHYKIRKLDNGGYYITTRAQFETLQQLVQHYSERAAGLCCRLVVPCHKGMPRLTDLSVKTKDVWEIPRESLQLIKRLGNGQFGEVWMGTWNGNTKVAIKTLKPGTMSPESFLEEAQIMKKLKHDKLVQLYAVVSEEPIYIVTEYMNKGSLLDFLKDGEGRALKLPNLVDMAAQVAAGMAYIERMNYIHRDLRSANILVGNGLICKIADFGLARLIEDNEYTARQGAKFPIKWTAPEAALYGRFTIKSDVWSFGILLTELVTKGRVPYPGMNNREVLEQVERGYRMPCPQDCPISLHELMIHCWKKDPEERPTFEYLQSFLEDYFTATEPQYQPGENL
Chain of Hepatocyte growth factor receptor (P08581 whole entry): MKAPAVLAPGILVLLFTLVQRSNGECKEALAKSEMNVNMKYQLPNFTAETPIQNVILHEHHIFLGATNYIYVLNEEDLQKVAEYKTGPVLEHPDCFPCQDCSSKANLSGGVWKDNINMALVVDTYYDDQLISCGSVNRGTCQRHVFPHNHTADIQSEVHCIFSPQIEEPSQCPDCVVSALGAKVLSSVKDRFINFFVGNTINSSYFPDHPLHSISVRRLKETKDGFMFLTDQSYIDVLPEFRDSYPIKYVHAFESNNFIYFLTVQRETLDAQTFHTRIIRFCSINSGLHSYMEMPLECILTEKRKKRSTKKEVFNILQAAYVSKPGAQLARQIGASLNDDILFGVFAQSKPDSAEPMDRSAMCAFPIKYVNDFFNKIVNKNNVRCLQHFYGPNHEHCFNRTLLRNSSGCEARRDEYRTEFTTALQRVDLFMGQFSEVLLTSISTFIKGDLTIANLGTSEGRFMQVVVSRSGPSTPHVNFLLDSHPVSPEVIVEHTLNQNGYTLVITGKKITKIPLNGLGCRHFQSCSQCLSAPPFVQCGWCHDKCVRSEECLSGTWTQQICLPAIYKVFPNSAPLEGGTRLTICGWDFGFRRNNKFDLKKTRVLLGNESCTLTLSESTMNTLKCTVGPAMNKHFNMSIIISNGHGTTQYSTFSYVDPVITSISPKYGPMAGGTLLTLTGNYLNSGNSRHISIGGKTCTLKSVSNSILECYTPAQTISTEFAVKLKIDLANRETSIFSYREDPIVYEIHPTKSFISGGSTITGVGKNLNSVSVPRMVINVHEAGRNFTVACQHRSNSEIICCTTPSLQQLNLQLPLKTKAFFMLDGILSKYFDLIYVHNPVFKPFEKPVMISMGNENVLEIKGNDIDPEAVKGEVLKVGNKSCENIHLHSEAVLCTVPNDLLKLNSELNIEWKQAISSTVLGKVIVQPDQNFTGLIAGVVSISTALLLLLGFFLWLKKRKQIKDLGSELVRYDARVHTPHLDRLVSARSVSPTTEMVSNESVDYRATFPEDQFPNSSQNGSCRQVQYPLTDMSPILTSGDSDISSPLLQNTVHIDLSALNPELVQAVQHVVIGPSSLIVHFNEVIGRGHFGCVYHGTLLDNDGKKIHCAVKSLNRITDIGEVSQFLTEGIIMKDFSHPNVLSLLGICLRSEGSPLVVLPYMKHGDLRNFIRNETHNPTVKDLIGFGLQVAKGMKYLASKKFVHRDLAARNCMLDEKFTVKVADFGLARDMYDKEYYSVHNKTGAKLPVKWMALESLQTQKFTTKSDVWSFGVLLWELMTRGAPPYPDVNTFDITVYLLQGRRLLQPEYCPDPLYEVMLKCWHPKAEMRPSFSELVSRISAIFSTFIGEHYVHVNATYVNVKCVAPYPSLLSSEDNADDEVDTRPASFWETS
Chain of Serine/threonine-protein kinase D2 (Q9BZL6 whole entry): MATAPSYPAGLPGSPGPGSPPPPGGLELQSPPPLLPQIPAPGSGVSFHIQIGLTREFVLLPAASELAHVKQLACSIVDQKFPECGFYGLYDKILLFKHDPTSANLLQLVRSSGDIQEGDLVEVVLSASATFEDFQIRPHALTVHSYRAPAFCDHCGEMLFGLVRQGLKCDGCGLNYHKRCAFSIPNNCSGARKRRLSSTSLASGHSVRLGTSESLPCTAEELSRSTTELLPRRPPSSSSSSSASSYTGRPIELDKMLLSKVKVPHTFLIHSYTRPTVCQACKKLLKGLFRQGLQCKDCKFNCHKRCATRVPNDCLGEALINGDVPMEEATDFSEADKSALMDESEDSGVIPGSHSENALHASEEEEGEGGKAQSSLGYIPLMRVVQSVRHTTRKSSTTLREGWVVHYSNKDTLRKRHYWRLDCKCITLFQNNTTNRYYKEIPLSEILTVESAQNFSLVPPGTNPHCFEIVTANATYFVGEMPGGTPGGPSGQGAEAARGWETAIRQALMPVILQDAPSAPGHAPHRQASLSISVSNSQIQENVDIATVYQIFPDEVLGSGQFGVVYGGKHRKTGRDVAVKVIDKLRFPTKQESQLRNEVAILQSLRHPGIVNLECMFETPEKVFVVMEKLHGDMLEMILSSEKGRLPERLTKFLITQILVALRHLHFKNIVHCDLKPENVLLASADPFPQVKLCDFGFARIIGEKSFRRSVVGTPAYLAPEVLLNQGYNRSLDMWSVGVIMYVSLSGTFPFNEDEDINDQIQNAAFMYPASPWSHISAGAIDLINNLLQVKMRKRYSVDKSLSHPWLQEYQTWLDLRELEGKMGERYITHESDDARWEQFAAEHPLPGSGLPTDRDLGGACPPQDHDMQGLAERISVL
Chain of Serine/threonine-protein kinase D2 (Homo sapiens) (Q9BZL6 whole entry): as above
Chain of Tyrosine-protein kinase Lyn (P07948 whole entry): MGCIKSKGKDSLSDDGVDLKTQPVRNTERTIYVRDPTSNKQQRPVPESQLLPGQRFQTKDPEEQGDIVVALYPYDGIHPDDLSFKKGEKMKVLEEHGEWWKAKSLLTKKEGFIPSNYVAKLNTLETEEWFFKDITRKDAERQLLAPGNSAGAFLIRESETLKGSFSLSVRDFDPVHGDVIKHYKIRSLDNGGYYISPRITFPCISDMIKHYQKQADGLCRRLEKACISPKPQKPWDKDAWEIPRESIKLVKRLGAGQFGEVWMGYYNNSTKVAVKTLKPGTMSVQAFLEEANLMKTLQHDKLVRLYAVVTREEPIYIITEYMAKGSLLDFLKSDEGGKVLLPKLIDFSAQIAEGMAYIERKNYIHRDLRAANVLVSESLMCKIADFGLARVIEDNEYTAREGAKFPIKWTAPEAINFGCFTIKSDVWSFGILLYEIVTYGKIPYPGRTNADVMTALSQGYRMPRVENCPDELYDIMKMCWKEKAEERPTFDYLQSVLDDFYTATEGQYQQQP
Chain of Serine/threonine-protein kinase PLK1 (P53350 whole entry): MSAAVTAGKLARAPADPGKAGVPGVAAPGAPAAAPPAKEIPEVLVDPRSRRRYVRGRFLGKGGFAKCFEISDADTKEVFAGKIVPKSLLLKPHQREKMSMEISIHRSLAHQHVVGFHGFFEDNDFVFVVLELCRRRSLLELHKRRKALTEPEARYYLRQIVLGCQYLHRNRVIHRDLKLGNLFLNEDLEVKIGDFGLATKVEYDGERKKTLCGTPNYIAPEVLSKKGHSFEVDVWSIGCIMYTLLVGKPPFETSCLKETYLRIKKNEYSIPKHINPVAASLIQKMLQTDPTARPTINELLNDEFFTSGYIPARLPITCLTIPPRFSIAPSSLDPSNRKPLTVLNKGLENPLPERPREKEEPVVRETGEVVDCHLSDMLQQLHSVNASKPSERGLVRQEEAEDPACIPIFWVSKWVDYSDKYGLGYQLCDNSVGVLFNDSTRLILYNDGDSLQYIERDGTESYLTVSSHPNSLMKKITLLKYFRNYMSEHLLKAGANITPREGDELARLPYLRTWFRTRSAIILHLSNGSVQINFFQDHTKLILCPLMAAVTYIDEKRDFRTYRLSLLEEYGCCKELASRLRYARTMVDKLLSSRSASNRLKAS
Chain of Serine/threonine-protein kinase Chk2 (O96017 whole entry): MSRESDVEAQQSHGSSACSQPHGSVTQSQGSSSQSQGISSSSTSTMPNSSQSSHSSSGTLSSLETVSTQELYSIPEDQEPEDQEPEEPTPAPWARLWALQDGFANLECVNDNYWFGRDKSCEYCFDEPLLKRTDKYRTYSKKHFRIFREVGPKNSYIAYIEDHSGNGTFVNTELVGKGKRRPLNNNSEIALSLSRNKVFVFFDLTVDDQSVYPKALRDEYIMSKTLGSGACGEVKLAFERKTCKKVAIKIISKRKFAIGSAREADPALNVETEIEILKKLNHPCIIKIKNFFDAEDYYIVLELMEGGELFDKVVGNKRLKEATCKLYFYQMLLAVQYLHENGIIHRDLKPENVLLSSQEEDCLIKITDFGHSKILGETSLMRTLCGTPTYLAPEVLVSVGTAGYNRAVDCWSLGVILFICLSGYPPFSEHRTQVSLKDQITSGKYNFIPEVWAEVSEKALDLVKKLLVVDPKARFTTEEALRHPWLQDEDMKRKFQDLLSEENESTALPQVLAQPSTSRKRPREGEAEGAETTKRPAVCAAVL

Molecule `C[C@H](/C=C\C(F)(F)F)Oc1cc(-c2cc(-c3cc(CN(C)C)cs3)cnc2N)ccc1C(N)=O` has an inhibition [1] of 57%, a GI50 (MDA-MB-231) of 4160 nM and an IC50 [2] of 1110 nM. It also gave an IC50 [3] of 5820 nM, a GI50 (MCF7) of 2170 nM and an IC50 [4] of 2000 nM. For the same molecule, the IC50 [5] was 8470 nM, the inhibition [6] was 12% and the IC50 (Aurora kinase A) was 4940 nM. For the same molecule, the inhibition [7] was 19%, the inhibition [8] was 0% and the GI50 (HeLa) was 590 nM. For the same molecule, the inhibition [9] was 89%, the IC50 [10] was 22 nM and the GI50 (U2OS) was 1820 nM. For the same molecule, the inhibition [11] was 46%, the IC50 [12] was 330 nM and the inhibition [13] was 77%. The IC50 [14] was 1360 nM and the IC50 [15] was 4570 nM.
